Test results published in patent US20160003808A1, “MOLECULAR TARGETS AND COMPOUNDS, AND METHODS TO IDENTIFY THE SAME, USEFUL IN THE TREATMENT OF DISEASES ASSOCIATED WITH EPITHELIAL MESENCHYMAL TRANSITION” (GALAPAGOS NV, priority 2013, published 2016).

How the values were obtained:
MMP10 = experiment: EMT on target screen, MMP10 read-out; type: cell-based, human; conditions: for OT MMP10 Screen Z-score 2: as E13, duplicate 2; for OT MMP10 Screen Z-score 1: robust Z-score, HBEC donor Br299, duplicate 1, cut-off Z ≦ −1.25
Fibronectin (FN) = experiment: EMT on target screen, FN read-out; type: cell-based, human; conditions: for OT FN Screen Z-score 2: as E11, duplicate 2; for Both (shRNA is a hit again in both OT assays, Yes/No): on target validation, Table 16; for OT FN Screen Z-score 1: robust Z-score, HBEC donor Br299, duplicate 1, cut-off Z ≦ −1.25

Substance	OT CTB assay Z-score 1 (HBEC)	OT CTB assay Z-score 2 (HBEC)	OT MMP10 Screen Z-score 2 (MMP10)	OT MMP10 Screen Z-score 1 (MMP10)	OT FN Screen Z-score 2 (Fibronectin (FN))	Both (shRNA is a hit again in both OT assays, Yes/No) (Fibronectin (FN))	OT FN Screen Z-score 1 (Fibronectin (FN))
72 (GAGTTGGACAGTGGAGGAC; chemistry not given here) [compound 72]	-3.13	-4.22	-6.59	-4.52	-7.31	yes	-3.99
54 (GACTGGAAAGCGACGGGTC; chemistry not given here) [compound 54]	-4.02	-5.83	0.94	0.62	-3.15	no	-3.47
60 (AACCTGGCCATTCAGACCC; chemistry not given here) [compound 60]	-7.10	-2.00	-0.06	-1.88	-2.96	yes	-2.56
50 (GAGGCAGCCTTGTACTCTT; chemistry not given here) [compound 50]	-0.51	2.33	-0.49	1.32	-4.42	no	-2.42
56 (TGATGGTTACCGCAAGATC; chemistry not given here) [compound 56]	0.64	-2.23	-5.05	-3.35	-3.69	yes	-2.74
52 (TGAATACTATGTGGGATTC; chemistry not given here) [compound 52]	-3.43	-3.45	0.95	1.96	-3.74	yes	-3.30
53 (TCAGCTGGGCGCTATGTTC; chemistry not given here) [compound 53]	-3.97	-4.28	0.45	-0.41	-2.98	no	-3.01
48 (GGATGGAGTTGGGAATCAC; chemistry not given here) [compound 48]	-1.14	-3.01	-2.43	-2.26	-3.44	yes	-3.28
47 (GAACACGTACAAAGTCATT; chemistry not given here) [compound 47]	-7.55	-4.92	-6.24	-11.24	-5.03	no	-4.88
57 (CCAAACCTGTGTCAACTTC; chemistry not given here) [compound 57]	-1.43	0.38	-1.94	-0.60	-3.69	no	-8.59
68 (CATCAGCTTCCTGCTGGGC; chemistry not given here) [compound 68]	-2.64	-2.21	-0.35	-1.18	-5.66	yes	-4.29
59 (TGAAGGTCAAGAAGCCGGC; chemistry not given here) [compound 59]	-6.59	-4.59	-1.19	-1.71	-8.92	yes	-6.20
63 (GAATTTCAGAAGTACTGTG; chemistry not given here) [compound 63]	-2.12	-3.06	2.02	1.53	-3.76	no	-3.62
67 (CAAGAGCGATGCCTATTAC; chemistry not given here) [compound 67]	-3.77	-3.83	0.32	1.39	-2.65	no	-3.19
70 (GAGTTTGCCTACTCAGAGG; chemistry not given here) [compound 70]	0.19	1.51	-1.35	-4.35	-4.05	no	-4.52
61 (CAATTCCCAAGGACAGGCT; chemistry not given here) [compound 61]	0.59	0.86	-2.31	-2.21	-1.44	no	-1.65
49 (GAGGATGCCATTAAGTATT; chemistry not given here) [compound 49]	-0.78	-0.88	0.87	0.57	-1.84	no	-1.75
71 (CACGGCTCTCCTATTTGTC; chemistry not given here) [compound 71]	-5.58	-4.56	0.95	0.88	-1.64	no	-1.73
51 (GGATCTTGGGTCCTATCCC; chemistry not given here) [compound 51]	-0.73	-2.03	-0.23	-0.02	-3.08	no	-2.90
62 (CAGATTCCATCTGATGGCC; chemistry not given here) [compound 62]	-3.19	-2.25	-2.79	-2.75	-5.21	yes	-4.99
65 (GGCCATGATTGAGAAACTC; chemistry not given here) [compound 65]	1.09	1.89	-3.44	-5.08	-4.03	no	-4.35
46 (ACTTCTGAGAGGTCACAGC; chemistry not given here) [compound 46]	-2.43	-5.13	-2.42	-2.20	-7.86	yes	-8.84
64 (GTCCAACAGAAGTACGTGC; chemistry not given here) [compound 64]	1.00	-1.33	1.09	-0.07	-2.52	no	-3.09
66 (GAAGGAGCTACTCATCTTC; chemistry not given here) [compound 66]	-2.25	-4.39	0.70	-1.93	-4.82	yes	-2.81
74 (AGACCTGGTCTACATCGAC; chemistry not given here) [compound 74]	-8.40	-6.74	-2.12	-2.88	-4.17	no	-2.80
69 (GATGGAGCGCTTACACTAC; chemistry not given here) [compound 69]	-3.34	-1.32	-3.43	-4.95	-5.75	no	-4.37
58 (GATCCCAGCAGTTATAACA; chemistry not given here) [compound 58]	-4.03	-2.02	-3.41	-3.06	-6.55	no	-2.47
